Molecules are shown by their SMILES. ≈ marks a conversion by molar mass, not a printed value.

The record followed here is publication PMC6150172, “Synthesis of Oxadiazole-Thiadiazole Hybrids and Their Anticandidal Activity” (Molecules : A Journal of Synthetic Chemistry and Natural …, 2017).

Data set [1] has as its system C. glabrata (ATCC 90030). As to the kind of experiment: Antifungal broth microdilution assay (EUCAST EDef 7.1), C. glabrata. The class given is cell-based. The following applies: for MIC50: Nakaseomyces glabratus, ATCC90030, read-out: Minimum inhibitory concentration (MIC50). On the procedure:
(§1) The anticandidal effect of compounds 6a–6s were screened in accord with the EUCAST definitive (EDef 7.1) method. Ketoconazole was employed as a reference drug. The in vitro growth inhibitory activity of the compounds were tested against C. albicans (ATCC 24433), C. glabrata (ATCC 90030), C. krusei (ATCC 6258) and C. parapsilosis (ATCC 22019). The results were obtained as MIC values and MIC readings were accomplished twice for each chemical agent. After incubating overnight at 37 °C, the fungal strains were sustained in Roswell Park Memorial Institute (RPMI) medium.
(§2) Adjustment of the inoculum density to a 0.5 McFarland turbidity standard was carried out by using a spectrophotometer. The resulting inoculum suspension contained 0.5 × 10^5–2.5 × 10^5 cfu/mL for fungi. The two-fold serial dilutions technique were applied and the test was carried out in Mueller–Hinton broth and RPMI at pH7 and the test was performed for medium at pH7. The last well on the microplates containing only inoculated broth and the last well with no growth of microorganism represent controls and the MIC50 in μg/mL, respectively. DMSO was used as solvent. Further dilutions of the compounds and standard drugs in the RPMI medium were prepared in the required quantities at contcentrations of 800, 400, 200, 100, 50, 25, 12.5, 6.25, 3.125, 1.5625 and 0.78 µg/mL. After a 24 h incubation of the completed plates, resazurin (20 µg/mL) was added into each well in order to observe the fungal growth. […] Each experiment in antifungal assay was performed twice.
In general terms: Broth dilution looks for growth in wells or tubes with falling amounts of substance.

The test system of data set [2] is C. albicans (ATCC 24433). As to the kind of experiment: Antifungal broth microdilution assay (EUCAST EDef 7.1), C. albicans. The class given is cell-based. Conditions: for MIC50: Candida albicans, ATCC24433, read-out: Minimum inhibitory concentration (MIC50). The method, then:
as §1, §2

Data set [3] concerns C. krusei (ATCC 6258). As to the kind of experiment: Antifungal broth microdilution assay (EUCAST EDef 7.1), C. krusei. It is filed as cell-based. Conditions: for MIC50: Pichia kudriavzevii, ATCC6258, read-out: Minimum inhibitory concentration (MIC50). The method, then:
as §1, §2

The subject of data set [4] is C. parapsilosis (ATCC 22019). As to the kind of experiment: Antifungal broth microdilution assay (EUCAST EDef 7.1), C. parapsilosis. It is filed as cell-based. Conditions: C. parapsilopsis; for MIC50: Lodderomyces parapsilosis, ATCC22019, read-out: Minimum inhibitory concentration (MIC50). On the procedure:
as §1, §2

Data set [5] deals with ergosterol biosynthesis in C. krusei. As to the kind of experiment: Ergosterol level quantification by LC-MS-MS in C. krusei. It is filed as cell-based. The following applies: Pichia kudriavzevii, mean ± SD. On the procedure:
The ergosterol level was determined using the method described by Breivik and Owades with adjustments according to [2]. C. krusei was inoculated with Sabouraud dextrose broth (Difco) supplemented with compounds 6e, 6k, 6r and the positive control, ketoconazole. The cultures were incubated, and the stationary-phase cells were harvested. After the addition of 25% alcoholic potassium hydroxide solution, cell suspensions were separated and incubated. Sterols were extracted by sterile distilled water and chloroform, and then the extract was injected into the LC-MS-MS system (Shimadzu LCMS 8040, Kyoto, Japan). The ergosterol quantity in the negative control samples was considered as 100%. All concentrations were analysed in quadruplicate, and the results were presented as mean ± standard deviation (SD).

Usually melting point stands for the temperature of the solid-liquid transition. With `O=C(CSc1nnc(CCSc2nnc(NC3CCCCC3)s2)o1)c1ccccc1` [Compound 6a, 2-[[5-[2-[[5-(Cyclohexylamino)-1,3,4-thiadiazol-2-yl]thio]ethyl]-1,3,4-oxadiazol-2-yl]thio]-1-phenylethan-1-one], the melting point turned out to be 141 °C. Besides, in data set [1], the MIC50 stood at 50 µg/mL (≈ 108 µM). The MIC50 in data set [2] was 25 µg/mL (≈ 54.2 µM). Further, the MIC50 in data set [3] was 50 µg/mL (≈ 108 µM). Besides, the MIC50 in data set [4] was 50 µg/mL (≈ 108 µM).
In turn, `Cc1ccc(C(=O)CSc2nnc(CCSc3nnc(NC4CCCCC4)s3)o2)cc1` [Compound 6b, 2-[[5-[2-[[5-(Cyclohexylamino)-1,3,4-thiadiazol-2-yl]thio]ethyl]-1,3,4-oxadiazol-2-yl]thio]-1-(4-methylphenyl)ethan-1-one] displayed a melting point of 136 °C. For the same molecule, the MIC50 in data set [1] was 50 µg/mL (≈ 105 µM). Also, in data set [2], the MIC50 was determined as 50 µg/mL (≈ 105 µM). Also, the MIC50 in data set [3] was found to be 100 µg/mL (≈ 210 µM). In addition, the MIC50 in data set [4] was 50 µg/mL (≈ 105 µM).
`COc1ccc(C(=O)CSc2nnc(CCSc3nnc(NC4CCCCC4)s3)o2)cc1` [Compound 6c, 2-[[5-[2-[[5-(Cyclohexylamino)-1,3,4-thiadiazol-2-yl]thio]ethyl]-1,3,4-oxadiazol-2-yl]thio]-1-(4-methoxyphenyl)ethan-1-one]: the melting point was 120 °C. In data set [1], the MIC50 turned out to be 25 µg/mL (≈ 50.8 µM). Besides, the MIC50 in data set [2] was found to be 100 µg/mL (≈ 203 µM). Moreover, in data set [3], the MIC50 was 100 µg/mL (≈ 203 µM). In addition, the MIC50 in data set [4] came to 50 µg/mL (≈ 102 µM).
On to `O=C(CSc1nnc(CCSc2nnc(NC3CCCCC3)s2)o1)c1ccc(Cl)cc1` [Compound 6d, 2-[[5-[2-[[5-(Cyclohexylamino)-1,3,4-thiadiazol-2-yl]thio]ethyl]-1,3,4-oxadiazol-2-yl]thio]-1-(4-chlorophenyl)ethan-1-one], for which the melting point stood at 167 °C. For the same molecule, the MIC50 in data set [1] amounted to 25 µg/mL (≈ 50.4 µM). In addition, in data set [2], the MIC50 came out at 100 µg/mL (≈ 202 µM). The MIC50 in data set [3] is 50 µg/mL (≈ 101 µM). Further, the MIC50 in data set [4] is 50 µg/mL (≈ 101 µM).
`O=C(CSc1nnc(CCSc2nnc(NC3CCCCC3)s2)o1)c1ccc(F)cc1` [Compound 6f, 2-[[5-[2-[[5-(Cyclohexylamino)-1,3,4-thiadiazol-2-yl]thio]ethyl]-1,3,4-oxadiazol-2-yl]thio]-1-(4-fluorophenyl)ethan-1-one] had a melting point of 131 °C. In addition, the MIC50 in data set [1] is 50 µg/mL (≈ 104 µM). In data set [2], the MIC50 amounted to 50 µg/mL (≈ 104 µM). Also, in data set [3], the MIC50 was found to be 25 µg/mL (≈ 52.1 µM). Also, in data set [4], the MIC50 is 50 µg/mL (≈ 104 µM).
As to `O=C(CSc1nnc(CCSc2nnc(NC3CCCCC3)s2)o1)Nc1ccccc1` [Compound 6g, 2-[[5-[2-[[5-(Cyclohexylamino)-1,3,4-thiadiazol-2-yl]thio]ethyl]-1,3,4-oxadiazol-2-yl]thio]-N-phenyl acetamide], the “Minimum inhibitory concentration (MIC50)” value in data set [1], in data set [2], in data set [3] and in data set [4] was 50 µg/mL (≈ 105 µM) in each case.
Consider `Cc1ccc(NC(=O)CSc2nnc(CCSc3nnc(NC4CCCCC4)s3)o2)cc1` [Compound 6h, 2-[[5-[2-[[5-(Cyclohexylamino)-1,3,4-thiadiazol-2-yl]thio]ethyl]-1,3,4-oxadiazol-2-yl]thio]-N-(4-methylphenyl)acetamide], for which the MIC50 in data set [1] was found to be 100 µg/mL (≈ 204 µM); in data set [2], 25 µg/mL (≈ 50.9 µM); in data set [3], 100 µg/mL (≈ 204 µM); in data set [4] it was 50 µg/mL (≈ 102 µM).
For `COc1ccc(NC(=O)CSc2nnc(CCSc3nnc(NC4CCCCC4)s3)o2)cc1` [Compound 6i, 2-[[5-[2-[[5-(Cyclohexylamino)-1,3,4-thiadiazol-2-yl]thio]ethyl]-1,3,4-oxadiazol-2-yl]thio]-N-(4-methoxyphenyl)acetamide], the MIC50 in data set [1] stood at 100 µg/mL (≈ 197 µM); in data set [2], 25 µg/mL (≈ 49.3 µM); in data set [3] it was 100 µg/mL (≈ 197 µM); in data set [4], 50 µg/mL (≈ 98.7 µM).
For the molecule `O=C(CSc1nnc(CCSc2nnc(NC3CCCCC3)s2)o1)Nc1ccc(Cl)cc1` [Compound 6j, 2-[[5-[2-[[5-(Cyclohexylamino)-1,3,4-thiadiazol-2-yl]thio]ethyl]-1,3,4-oxadiazol-2-yl]thio]-N-(4-chlorophenyl)acetamide], the MIC50 in data set [1] amounted to 50 µg/mL (≈ 97.8 µM); in data set [2] it was 25 µg/mL (≈ 48.9 µM); in data set [3], 50 µg/mL (≈ 97.8 µM); in data set [4], 50 µg/mL (≈ 97.8 µM).
On to `O=C(CSc1nnc(CCSc2nnc(NC3CCCCC3)s2)o1)Nc1ccc(F)cc1` [Compound 6l, 2-[[5-[2-[[5-(Cyclohexylamino)-1,3,4-thiadiazol-2-yl]thio]ethyl]-1,3,4-oxadiazol-2-yl]thio]-N-(4-fluorophenyl)acetamide], for which the MIC50 in data set [1] came to 50 µg/mL (≈ 101 µM); in data set [2], 100 µg/mL (≈ 202 µM); in data set [3] it was 50 µg/mL (≈ 101 µM); in data set [4], 25 µg/mL (≈ 50.5 µM).
As to `O=C(CSc1nnc(CCSc2nnc(NC3CCCCC3)s2)o1)Nc1nc2ccccc2s1` [Compound 6m, 2-[[5-[2-[[5-(Cyclohexylamino)-1,3,4-thiadiazol-2-yl]thio]ethyl]-1,3,4-oxadiazol-2-yl]thio]-N-(benzothiazol-2-yl)acetamide], the melting point came to 214 °C. In data set [1], the MIC50 was 50 µg/mL (≈ 93.7 µM). The MIC50 in data set [2] was found to be 50 µg/mL (≈ 93.7 µM). In addition, the MIC50 in data set [3] worked out at 50 µg/mL (≈ 93.7 µM). In data set [4], the MIC50 was 25 µg/mL (≈ 46.8 µM).
`Cc1ccc2nc(NC(=O)CSc3nnc(CCSc4nnc(NC5CCCCC5)s4)o3)sc2c1` [Compound 6n, 2-[[5-[2-[[5-(Cyclohexylamino)-1,3,4-thiadiazol-2-yl]thio]ethyl]-1,3,4-oxadiazol-2-yl]thio]-N-(6-methylbenzothiazol-2-yl)acetamide] had a melting point of 209 °C. Besides, in data set [1], the MIC50 was determined as 25 µg/mL (≈ 45.6 µM). Further, the MIC50 in data set [2] was 100 µg/mL (≈ 183 µM). For the same molecule, the MIC50 in data set [3] came out at 50 µg/mL (≈ 91.3 µM). Also, in data set [4], the MIC50 came out at 25 µg/mL (≈ 45.6 µM).
Turning to `COc1ccc2nc(NC(=O)CSc3nnc(CCSc4nnc(NC5CCCCC5)s4)o3)sc2c1` [Compound 6o, 2-[[5-[2-[[5-(Cyclohexylamino)-1,3,4-thiadiazol-2-yl]thio]ethyl]-1,3,4-oxadiazol-2-yl]thio]-N-(6-methoxybenzothiazol-2-yl)acetamide], the MIC50 in data set [1] stood at 25 µg/mL (≈ 44.3 µM); in data set [2], 100 µg/mL (≈ 177 µM); in data set [3], 25 µg/mL (≈ 44.3 µM); in data set [4], 50 µg/mL (≈ 88.7 µM).
Take `O=C(CSc1nnc(CCSc2nnc(NC3CCCCC3)s2)o1)Nc1nc2ccc(Cl)cc2s1` [Compound 6p, 2-[[5-[2-[[5-(Cyclohexylamino)-1,3,4-thiadiazol-2-yl]thio]ethyl]-1,3,4-oxadiazol-2-yl]thio]-N-(6-chlorobenzothiazol-2-yl)acetamide]: the melting point came out at 213 °C. Besides, the MIC50 in data set [1] was determined as 25 µg/mL (≈ 44 µM). Besides, in data set [2], the MIC50 came to 50 µg/mL (≈ 88 µM). Besides, the MIC50 in data set [3] turned out to be 25 µg/mL (≈ 44 µM). For the same molecule, the MIC50 in data set [4] was 50 µg/mL (≈ 88 µM).
`O=C(CSc1nnc(CCSc2nnc(NC3CCCCC3)s2)o1)Nc1nc2ccc(F)cc2s1` [Compound 6s, 2-[[5-[2-[[5-(Cyclohexylamino)-1,3,4-thiadiazol-2-yl]thio]ethyl]-1,3,4-oxadiazol-2-yl]thio]-N-(6-fluorobenzothiazol-2-yl)acetamide]: the MIC50 in data set [1] is 6.25 µg/mL (≈ 11.3 µM); in data set [2], 50 µg/mL (≈ 90.6 µM); in data set [3], 50 µg/mL (≈ 90.6 µM); in data set [4] it was 50 µg/mL (≈ 90.6 µM).
The term inhibition denotes the relative decrease from the control value, in per cent. In data set [5] (0.78 µg/mL), `CC(=O)N1CCN(c2ccc(OCC3COC(Cn4ccnc4)(c4ccc(Cl)cc4Cl)O3)cc2)CC1` (stereo not drawn) [Ketoconazole, reference compound] returned an inhibition at 0.78 µg/mL of 61 ± 2.94%. Further, the inhibition at 1.56 µg/mL in data set [5] (1.56 µg/mL) is 73.1 ± 4.16%. The molecule also returned an inhibition at 3.12 µg/mL in data set [5] (3.12 µg/mL) of 84.6 ± 3.01%. Also, the MIC50 was 1.56 µg/mL (≈ 2.94 µM) in data set [1], 0.78 µg/mL (≈ 1.47 µM) in data set [2], 1.56 µg/mL (≈ 2.94 µM) in data set [3] and 1.56 µg/mL (≈ 2.94 µM) in data set [4].
